# Assay results from article PMC12406652 (Antimicrobial Agents and Chemotherapy, 2025).
# Assay: Drug-drug interaction, single dose CTB 400 mg + LED-E 500 mg, cross-over (VNRX-7145-102 Part 1)
# Conditions: human, plasma, oral
compound,measurement,setting,value
CCC(=O)N[C@H]1Cc2cccc(C(=O)OCOC(=O)C(CC)CC)c2OB1O [Ledaborbactam etzadroxil],AUC(0-inf),,1.07 µg·h/mL
same,Cmax,,0.787 µg/mL
same,AUC(0-inf),500 mg,1.14 µg·h/mL
same,Cmax,500 mg,1.04 µg/mL
